Source: patent publication US6150385A, “1,3,4-thiadiazoles useful for the treatment of CMV infections” (Pharmacia & Upjohn Company, priority 1999, dated 2000)

Target: T1, HCMV polymerase (Human cytomegalovirus, UniProt P08546)
T1 construct: made in house; host or cells: SF-9 insect cells infected with recombinant baculovirus
Assay: HCMV polymerase assay (scintillation proximity assay)
Type: biochemical
Details: percentage of inhibition at 25 μM concentration in CMV polymerase assay
Summary of the method: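 Baculovirus/SF-9-expressed HCMV polymerase in 5.4 mM HEPES pH 7.5, 11.7 mM KCl, 4.5 mM MgCl2, 0.36 mg/ml BSA, 90 nM 3H-dTTP, with or without 2 mM CHAPS. Started with 6 nM biotinylated poly(dA)-oligo(dT), 30 min at 25 or 37 °C, EDTA-stopped, read by streptavidin-SPA counting; % inhibition at 25 μM.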

T1 sequence (P08546 whole entry): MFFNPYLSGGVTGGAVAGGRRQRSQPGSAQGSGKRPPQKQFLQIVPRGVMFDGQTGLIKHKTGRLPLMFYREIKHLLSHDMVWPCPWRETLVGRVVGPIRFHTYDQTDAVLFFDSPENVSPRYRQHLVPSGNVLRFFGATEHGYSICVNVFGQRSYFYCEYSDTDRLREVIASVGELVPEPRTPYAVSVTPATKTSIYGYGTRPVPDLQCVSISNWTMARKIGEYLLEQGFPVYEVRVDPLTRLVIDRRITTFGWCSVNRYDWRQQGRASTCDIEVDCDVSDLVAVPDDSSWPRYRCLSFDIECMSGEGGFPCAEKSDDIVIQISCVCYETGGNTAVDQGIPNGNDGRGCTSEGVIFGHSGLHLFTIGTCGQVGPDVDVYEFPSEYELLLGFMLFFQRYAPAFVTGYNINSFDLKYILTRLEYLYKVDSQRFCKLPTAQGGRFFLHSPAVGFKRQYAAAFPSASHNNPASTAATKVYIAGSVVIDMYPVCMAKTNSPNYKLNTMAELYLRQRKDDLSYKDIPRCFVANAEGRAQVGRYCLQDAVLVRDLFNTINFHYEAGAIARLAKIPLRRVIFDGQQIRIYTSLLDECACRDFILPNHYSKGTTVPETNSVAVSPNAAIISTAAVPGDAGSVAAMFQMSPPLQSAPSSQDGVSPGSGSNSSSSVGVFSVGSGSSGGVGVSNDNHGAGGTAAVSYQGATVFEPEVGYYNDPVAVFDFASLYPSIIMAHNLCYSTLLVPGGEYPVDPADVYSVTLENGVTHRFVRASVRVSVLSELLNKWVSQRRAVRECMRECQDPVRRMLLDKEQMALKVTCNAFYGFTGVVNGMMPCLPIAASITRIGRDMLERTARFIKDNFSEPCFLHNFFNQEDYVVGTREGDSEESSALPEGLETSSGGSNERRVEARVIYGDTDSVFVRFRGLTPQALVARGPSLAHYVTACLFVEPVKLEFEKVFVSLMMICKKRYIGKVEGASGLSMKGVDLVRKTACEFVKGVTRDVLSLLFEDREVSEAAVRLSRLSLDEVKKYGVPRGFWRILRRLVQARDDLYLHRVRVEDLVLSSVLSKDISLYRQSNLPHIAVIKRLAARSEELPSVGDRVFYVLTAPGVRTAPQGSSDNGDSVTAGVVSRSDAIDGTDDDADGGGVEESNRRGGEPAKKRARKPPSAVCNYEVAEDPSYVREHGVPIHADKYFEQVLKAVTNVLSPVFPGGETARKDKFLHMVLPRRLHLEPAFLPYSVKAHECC

| inhibition at 25 µM [%] | Structure (SMILES) |
| --- | --- |
| 97.4 | O=C(Nc1nnc(NC2CCCc3ccccc32)s1)c1ccc2c(c1)C(=O)OC2=O (stereo not shown) [compound 21, 1,3-dioxo-N-[5-(1,2,3,4-tetrahydro-1-naphthalenylamino)-1,3,4-thiadiazol-2-yl]-1,3-dihydro-2-benzofuran-5-carboxamide] |
| 29.8 | O=C(Nc1nnc(NC2CCc3ccccc32)s1)c1cccc([N+](=O)[O-])c1 (stereo not shown) [compound 355, N-[5-(2,3-dihydro-1H-inden-1-ylamino)-1,3,4-thiadiazol-2-yl]-3-nitrobenzamide] |
| 47.2 | O=C(Nc1nnc(NCC(c2ccccc2)c2ccccc2)s1)c1cc(F)cc(F)c1 [compound 188, N-{5-[(2,2-diphenylethyl)amino]-1,3,4-thiadiazol-2-yl}-3,5-difluorobenzamide] |
| 98.6 | O=C(Nc1nnc(NCC(c2ccccc2)c2ccccc2)s1)c1ccc2c(c1)C(=O)OC2=O [compound 17, N-{5-[(2,2-diphenylethyl)amino]-1,3,4-thiadiazol-2-yl}-1,3-dioxo-1,3-dihydro-2-benzofuran-5-carboxamide] |
| 70.6 | CCOc1ccc2ccccc2c1C(=O)Nc1nnc(NCCNc2ccccc2)s1 [compound 69, N-{5-[(2-anilinoethyl)amino]-1,3,4-thiadiazol-2-yl}-2-ethoxy-1-naphthamide] |
| 55.2 | O=C(Nc1nnc(NCc2ccc(F)cc2)s1)c1c(Cl)cccc1Cl [compound 144, 2,6-dichloro-N-{5-[(4-fluorobenzyl)amino]-1,3,4-thiadiazol-2-yl}benzamide] |
| 69 | N#Cc1ccc(C(=O)Nc2nnc(NCc3ccc(F)cc3)s2)cc1 [compound 74, 4-cyano-N-{5-[(4-fluorobenzyl)amino]-1,3,4-thiadiazol-2-yl}benzamide] |
| 21.9 | O=C(Nc1nnc(NCCc2cccs2)s1)c1ccc(F)cc1F [compound 445] |
| 77.6 | CCOc1ccc2ccccc2c1C(=O)Nc1nnc(NCC(c2ccccc2)c2ccccc2)s1 [compound 55, N-{5-[(2,2-diphenylethyl)amino]-1,3,4-thiadiazol-2-yl}-2-ethoxy-1-naphthamide] |
| 22.5 | CCCCCCCCCCCNc1nnc(NC(=O)c2c(C(C)C)cc(C(C)C)cc2C(C)C)s1 [compound 441, 2,4,6-triisopropyl-N-[5-(undecylamino)-1,3,4-thiadiazol-2-yl]benzamide] |
| 25.9 | O=C(/C=C/c1ccccc1Cl)Nc1nnc(NCCN2CCCC2)s1 [compound 397, (E)-3-(2-chlorophenyl)-N-(5-{[2-(1-pyrrolidinyl)ethyl]amino}-1,3,4-thiadiazol-2-yl)-2-propenamide] |
| 67.7 | N#Cc1ccc(C(=O)Nc2nnc(NCCc3c[nH]c4ccccc34)s2)cc1 [compound 82, 4-cyano-N-(5-{[2-(1H-indol-3-yl)ethyl]amino}-1,3,4-thiadiazol-2-yl)benzamide] |
| 45.3 | O=C(CCCCCl)Nc1nnc(NCc2cccc3ccccc23)s1 [compound 200, 5-chloro-N-{5-[(1-naphthylmethyl)amino]-1,3,4-thiadiazol-2-yl}pentanamide] |
| 51.3 | O=C(CCCCCl)Nc1nnc(NCc2ccc3c(c2)OCO3)s1 [compound 165, N-{5-[(1,3-benzodioxol-5-ylmethyl)amino]-1,3,4-thiadiazol-2-yl}-5-chloropentanamide] |
| 28.7 | N#Cc1ccc(C(=O)Nc2nnc(NCc3cccs3)s2)cc1 [compound 365, 4-cyano-N-{5-[(2-thienylmethyl)amino]-1,3,4-thiadiazol-2-yl}benzamide] |
| 87.4 | O=C(Nc1nnc(NCCCNC2CCCCC2)s1)c1c(Cl)cccc1Cl [compound 37, 2,6-dichloro-N-(5-{[3-(cyclohexylamino)propyl]amino}-1,3,4-thiadiazol-2-yl)benzamide] |
| 39.7 | CC(=O)NCCNc1nnc(NC(=O)c2ccc3c(c2)C(=O)OC3=O)s1 [compound 258, N-(5-{[2-(acetylamino)ethyl]amino}-1,3,4-thiadiazol-2-yl)-1,3-dioxo-1,3-dihydro-2-benzofuran-5-carboxamide] |
| 32.4 | CCOc1ccc2ccccc2c1C(=O)Nc1nnc(NCCc2ccc(S(N)(=O)=O)cc2)s1 [compound 328, N-(5-{[4-(aminosulfonyl)phenethyl]amino}-1,3,4-thiadiazol-2-yl)-2-ethoxy-1-naphthamide] |
| 44.7 | O=C(/C=C/c1ccccc1Cl)Nc1nnc(NCCCN2CCCC2=O)s1 [compound 208, (E)-3-(2-chlorophenyl)-N-(5-{[3-(2-oxo-1-pyrrolidinyl)propyl]amino}-1,3,4-thiadiazol-2-yl)-2-propenamide] |
| 41 | COc1ccc(CNc2nnc(NC(=O)c3ccc(C#N)cc3)s2)cc1OC [compound 244, 4-cyano-N-{5-[(3,4-dimethoxybenzyl)amino]-1,3,4-thiadiazol-2-yl}benzamide] |

| inhibition at 25 µM [%] | Structure (SMILES) |
| --- | --- |
| 49 | O=C(/C=C/c1ccccc1)Nc1nnc(NCc2ccc3c(c2)OCO3)s1 [compound 178, (E)-N-{5-[(1,3-benzodioxol-5-ylmethyl)amino]-1,3,4-thiadiazol-2-yl}-3-phenyl-2-propenamide] |
| 83.3 | O=C(Nc1nnc(NCc2cccc3ccccc23)s1)c1ccc([N+](=O)[O-])o1 [compound 44, N-{5-[(1-naphthylmethyl)amino]-1,3,4-thiadiazol-2-yl}-5-nitro-2-furamide] |
| 58.3 | CCCCCCCC/C=C/CCCCCCCC(=O)Nc1nnc(NCCSCC)s1 [compound 129, (E)-N-(5-{[2-(ethylsulfanyl)ethyl]amino}1,3,4-thiadiazol-2-yl)-9-octadecenamide] |
| 29 | O=C(/C=C/c1ccccc1)Nc1nnc(NCC2CCCCC2)s1 [compound 360, (E)-N-{5-[(cyclohexylmethyl)amino]-1,3,4-thiadiazol-2-yl}-3-phenyl-2-propenamide] |
| 34.8 | O=C(Nc1nnc(NCc2cccnc2)s1)c1cc2ccccc2s1 [compound 301, N-{5-[(3-pyridinylmethyl)amino]-1,3,4-thiadiazol-2-yl}-1-benzothiophene-2-carboxamide] |
| 77.7 | O=C(Nc1nnc(NCc2ccncc2)s1)c1ccc2c(c1)C(=O)OC2=O [compound 54, 1,3-dioxo-N-{5-[(4-pyridinylmethyl)amino]-1,3,4-thiadiazol-2-yl}-1,3-dihydro-2-benzofuran-5-carboxamide] |
| 37.9 | O=C(Nc1nnc(NCCC(c2ccccc2)c2ccccc2)s1)c1cc2ccccc2s1 [compound 277, N-{5-[(3,3-diphenylpropyl)amino]-1,3,4-thiadiazol-2-yl}-1-benzothiophene-2-carboxamide] |
| 29.6 | Cc1ccc(C(=O)Nc2nnc(NCCCCc3ccccc3)s2)cc1 [compound 356, 4-methyl-N-{5-[(4-phenylbutyl)amino]-1,3,4-thiadiazol-2-yl}benzamide] |
| 24.4 | O=C(Nc1nnc(NCc2cccnc2)s1)c1ccc(Cl)c(Cl)c1 [compound 417, 3,4-dichloro-N-{5-[(3-pyridinylmethyl)amino]-1,3,4-thiadiazol-2-yl}benzamide] |
| 53.6 | O=C(/C=C/c1ccccc1Cl)Nc1nnc(NCC(c2ccccc2)c2ccccc2)s1 [compound 154, (E)-3-(2-chlorophenyl)-N-{5-[(2,2-diphenylethyl)amino]-1,3,4-thiadiazol-2-yl}-2-propenamide] |
| 44.2 | O=C(Nc1nnc(NCCCNC2CCCCC2)s1)c1ccc(I)cc1 [compound 212, N-(5-{[3-(cyclohexylamino)propyl]amino}-1,3,4-thiadiazol-2-yl)-4-iodobenzamide] |
| 30.3 | O=C(Nc1nnc(NCc2ccc(Cl)c(Cl)c2)s1)c1ccc([N+](=O)[O-])o1 [compound 350, N-{5-[(3,4-dichlorobenzyl)amino]-1,3,4-thiadiazol-2-yl}-5-nitro-2-furamide] |
| 22.8 | CC(C)c1cc(C(C)C)c(C(=O)Nc2nnc(NCCC#N)s2)c(C(C)C)c1 [compound 435, N-{5-[(2-cyanoethyl)amino]-1,3,4-thiadiazol-2-yl}-2,4,6-triisopropylbenzamide] |
| 57 | O=C(/C=C/c1ccccc1)Nc1nnc(NCCCn2ccnc2)s1 [compound 133, (E)-N-(5-{[3-(1H-imidazol-1-yl)propyl]amino}-1,3,4-thiadiazol-2-yl)-3-phenyl-2-propenamide] |
| 33.2 | O=C(CCCCCl)Nc1nnc(NCc2ccc(F)cc2)s1 [compound 321, 5-chloro-N-{5-[(4-fluorobenzyl)amino]-1,3,4-thiadiazol-2-yl}pentanamide] |
| 67.9 | CCCCCCCCCCCNc1nnc(NC(=O)c2cccc([N+](=O)[O-])c2)s1 [compound 80, 3-nitro-N-[5-(undecylamino)-1,3,4-thiadiazol-2-yl]benzamide] |
| 54.8 | N#CCCNc1nnc(NC(=O)c2c(Cl)cccc2Cl)s1 [compound 146, 2,6-dichloro-N-{5-[(2-cyanoethyl)amino]-1,3,4-thiadiazol-2-yl}benzamide] |
| 21.2 | O=C(Nc1nnc(NCCc2c[nH]cn2)s1)c1ccc(I)cc1 [compound 454, N-(5-{[2-(1H-imidazol-4-yl)ethyl]amino}-1,3,4-thiadiazol-2-yl)-4-iodobenzamide] |
| 47.2 | O=C(Nc1nnc(NCC(c2ccccc2)c2ccccc2)s1)c1cc2ccccc2s1 [compound 187, N-{5-[(2,2-diphenylethyl)amino]-1,3,4-thiadiazol-2-yl}-1-benzothiophene-2-carboxamide] |
| 57 | CCOC(=O)N1CCC(Nc2nnc(NC(=O)c3c(Cl)cccc3Cl)s2)CC1 [compound 132, ethyl 4-({5-[(2,6-dichlorobenzoyl)amino]-1,3,4-thiadiazol-2-yl}amino)tetrahydro-1(2H)-pyridinecarboxylate] |
